From patent US3952061A, “Method of isomerizing humulone to isohumulone by catalytic acceleration with metal salts” (Atlantic Research Institute Limited, priority 1967, dated 1976)
Read-outs that look alike come from different tables or passages of the source.

Legend:
tubercular bacteria = conditions: tests in vitro; cited from earlier work
[1] = type: physicochemical
Procedure: The acceleration of the isomerization in accordance with the present invention is particularly striking at pH values of between 4 and 8. […] For the characterization of this acceleration of the conversion of humulone to isohumulone, reaction-kinetic experiments at different temperatures are shown in the accompanying figures. As reaction media there is used an 0.1 and 0.025 molar sodium acetate solution to which there are added in each case the metal salts in concentrations of 10^^-3 mol/liter and 10^^-4 mol/liter, respectively. Furthermore, pure metal salt solutions of higher concentration (0.025 mol/liter) (FIG. 2) of different pH were also used for the conversion of the humulone.
By way of comparison, the slow isomerization reaction in pure phosphate buffers is also recorded. It should be emphasized that the sodium acetate in the reaction solutions is not necessary for the reaction itself, but merely serves to maintain the pH constant. […] For FIGS. 1 and 2, the logarithm of the humulone extinction measured in a spectral photometer was plotted against the reaction time (in accordance with the law of Lambert and Beer, the extinction is directly proportional to the concentration).

**Q.** Which “activity compared with Conteben” value (tubercular bacteria) does the source give for `CC(C)=CCC(=O)C1(O)C(O)=C(C(=O)CC(C)C)C(=O)C1CC=C(C)C` (stereo not drawn) [isohumulone] here?
**A.** Its value is “practically just as active as Conteben”.

**Q.** Which Half-Life ([1]; acetate buffer + cacl2, pH 8) does the source give for humulone here?
**A.** Its Half-Life is 22 min.

**Q.** And the Half-Life ([1]; acetate buffer + cdcl2, pH 7)?
**A.** The Half-Life was 5.9 min.

**Q.** And the Half-Life ([1]; acetate buffer + mgcl2, pH 7.5)?
**A.** The Half-Life was 7.3 min.

**Q.** What about the Half-Life ([1]; acetate buffer + mgcl2, pH 8) of the same compound?
**A.** The Half-Life was 2.6 min.

**Q.** What about the Half-Life ([1]; acetate buffer + mncl2, pH 7.5) of the same compound?
**A.** Its Half-Life is 3.2 min.

**Q.** What about the Half-Life ([1]; acetate buffer + niso4, pH 6.5) of the same compound?
**A.** Its Half-Life is 2.5 min.

**Q.** And the Half-Life ([1]; acetate buffer, pH 7)?
**A.** Its Half-Life is 360 min.

**Q.** What about the Half-Life ([1]; phosphate buffer, pH 5.5) of the same compound?
**A.** Its Half-Life is 120 min.

**Q.** What about the Half-Life about (bacl2 solution, pH 6.9) of the same compound?
**A.** Its Half-Life about is ~9 min.

**Q.** What about the Half-Life about (cacl2 solution, pH 6.6) of the same compound?
**A.** Its Half-Life about is ~2 min.

**Q.** And the Half-Life about (cecl3 solution, pH 4.2)?
**A.** The Half-Life about was ~10 min.

**Q.** And the Half-Life about (niso4 solution, pH 4.7)?
**A.** Its Half-Life about is ~0.7 min.

**Q.** And the Half-Life about (phosphate buffer, pH 5.5)?
**A.** Its Half-Life about is ~100 min.

**Q.** And the Half-Life about (phosphate buffer, pH 7.2)?
**A.** The Half-Life about was ~100 min.
